Data from BindingDB's records for doi:10.1128/AAC.01311-05 (Microbiotix, 2007).
pIC50, pKi: −log10 of the molar value.

Legend:
[1] = target: T1, DNA polymerase alpha subunit B (Bos taurus, UniProt Q58D13); assay: DNA Polymerase Activity Assay; settings: pH 7.5; 37 °C
T1 sequence (Q58D13 whole entry): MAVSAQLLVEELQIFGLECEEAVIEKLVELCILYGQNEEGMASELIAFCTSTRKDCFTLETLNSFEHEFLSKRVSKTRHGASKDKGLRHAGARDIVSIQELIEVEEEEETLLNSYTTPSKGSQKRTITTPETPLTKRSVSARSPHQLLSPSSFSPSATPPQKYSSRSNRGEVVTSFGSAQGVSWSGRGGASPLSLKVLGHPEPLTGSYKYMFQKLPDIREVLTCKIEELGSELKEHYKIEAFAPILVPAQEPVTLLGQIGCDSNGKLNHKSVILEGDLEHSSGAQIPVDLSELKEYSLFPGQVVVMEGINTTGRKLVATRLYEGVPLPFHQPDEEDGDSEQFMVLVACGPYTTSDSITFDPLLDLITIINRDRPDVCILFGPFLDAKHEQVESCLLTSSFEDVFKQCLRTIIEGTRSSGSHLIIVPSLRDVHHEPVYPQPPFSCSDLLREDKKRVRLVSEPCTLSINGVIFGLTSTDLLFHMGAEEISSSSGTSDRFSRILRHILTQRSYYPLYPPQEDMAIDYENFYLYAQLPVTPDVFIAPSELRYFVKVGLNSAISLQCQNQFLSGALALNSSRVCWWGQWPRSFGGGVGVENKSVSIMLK
Experimental: (§1) Reaction velocities were determined at each dGTP concentration and used to create double reciprocal plots of velocity versus dGTP concentration. The plots were used to assess the mechanism of inhibition and calculate the apparent Ki value for the inhibitor.

[2] = target: DNA topoisomerase 4 subunit A [V210L]/B (Bacillus subtilis, UniProt Q45066+Q59192, V210L); assay: DNA Topoisomerase IV Assay; settings: pH 7.5; 30 °C
DNA gyrase subunit A/B = DNA gyrase subunit A/B (Bacillus subtilis (strain 168), UniProt P05652+P05653); assay: DNA Gyrase Activity Assay; settings: pH 7.5; 30 °C
[3] = target: DNA polymerase III subunit alpha (Bacillus subtilis (strain 168), UniProt O34623); assay: DNA Polymerase Activity Assay; settings: pH 7.5; 30 °C
Experimental: as §1

[4] = target: DNA polymerase III subunit alpha (Escherichia coli (strain K12), UniProt P10443); assay: DNA Polymerase Activity Assay; settings: pH 7.5; 30 °C
Experimental: as §1

Chain of DNA polymerase III subunit alpha (Escherichia coli (strain K12), UniProt P10443) (P10443 whole entry): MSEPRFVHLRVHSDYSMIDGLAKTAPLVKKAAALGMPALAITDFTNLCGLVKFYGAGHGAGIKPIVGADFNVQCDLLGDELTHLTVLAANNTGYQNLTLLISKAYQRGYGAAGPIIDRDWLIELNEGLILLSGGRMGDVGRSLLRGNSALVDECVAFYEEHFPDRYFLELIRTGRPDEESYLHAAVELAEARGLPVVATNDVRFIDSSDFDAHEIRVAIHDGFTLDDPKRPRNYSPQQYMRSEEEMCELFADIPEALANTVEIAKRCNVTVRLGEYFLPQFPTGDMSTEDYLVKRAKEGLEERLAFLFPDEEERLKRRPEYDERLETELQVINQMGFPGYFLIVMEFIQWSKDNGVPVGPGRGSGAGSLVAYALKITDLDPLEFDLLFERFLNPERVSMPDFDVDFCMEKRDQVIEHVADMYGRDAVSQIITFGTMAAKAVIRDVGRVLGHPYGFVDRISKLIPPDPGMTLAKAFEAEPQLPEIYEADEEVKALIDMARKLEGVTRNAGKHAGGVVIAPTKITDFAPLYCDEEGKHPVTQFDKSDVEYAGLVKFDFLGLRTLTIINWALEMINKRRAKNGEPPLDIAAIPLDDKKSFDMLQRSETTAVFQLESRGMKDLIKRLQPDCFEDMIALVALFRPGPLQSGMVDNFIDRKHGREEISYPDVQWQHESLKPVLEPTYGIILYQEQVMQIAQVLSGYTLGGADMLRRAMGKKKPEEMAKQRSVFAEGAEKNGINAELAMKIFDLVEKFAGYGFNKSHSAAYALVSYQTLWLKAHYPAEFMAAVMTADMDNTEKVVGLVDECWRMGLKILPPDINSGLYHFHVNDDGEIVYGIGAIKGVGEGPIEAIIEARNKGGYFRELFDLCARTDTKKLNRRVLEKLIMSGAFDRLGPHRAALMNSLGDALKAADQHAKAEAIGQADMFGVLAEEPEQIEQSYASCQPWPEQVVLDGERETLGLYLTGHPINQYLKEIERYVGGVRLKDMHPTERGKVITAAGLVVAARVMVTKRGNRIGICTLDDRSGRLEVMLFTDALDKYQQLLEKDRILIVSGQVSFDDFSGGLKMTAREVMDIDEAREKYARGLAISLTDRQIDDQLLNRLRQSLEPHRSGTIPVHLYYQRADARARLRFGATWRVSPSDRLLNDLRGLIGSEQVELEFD
Chain of DNA polymerase III subunit alpha (Bacillus subtilis (strain 168), UniProt O34623) (O34623 whole entry): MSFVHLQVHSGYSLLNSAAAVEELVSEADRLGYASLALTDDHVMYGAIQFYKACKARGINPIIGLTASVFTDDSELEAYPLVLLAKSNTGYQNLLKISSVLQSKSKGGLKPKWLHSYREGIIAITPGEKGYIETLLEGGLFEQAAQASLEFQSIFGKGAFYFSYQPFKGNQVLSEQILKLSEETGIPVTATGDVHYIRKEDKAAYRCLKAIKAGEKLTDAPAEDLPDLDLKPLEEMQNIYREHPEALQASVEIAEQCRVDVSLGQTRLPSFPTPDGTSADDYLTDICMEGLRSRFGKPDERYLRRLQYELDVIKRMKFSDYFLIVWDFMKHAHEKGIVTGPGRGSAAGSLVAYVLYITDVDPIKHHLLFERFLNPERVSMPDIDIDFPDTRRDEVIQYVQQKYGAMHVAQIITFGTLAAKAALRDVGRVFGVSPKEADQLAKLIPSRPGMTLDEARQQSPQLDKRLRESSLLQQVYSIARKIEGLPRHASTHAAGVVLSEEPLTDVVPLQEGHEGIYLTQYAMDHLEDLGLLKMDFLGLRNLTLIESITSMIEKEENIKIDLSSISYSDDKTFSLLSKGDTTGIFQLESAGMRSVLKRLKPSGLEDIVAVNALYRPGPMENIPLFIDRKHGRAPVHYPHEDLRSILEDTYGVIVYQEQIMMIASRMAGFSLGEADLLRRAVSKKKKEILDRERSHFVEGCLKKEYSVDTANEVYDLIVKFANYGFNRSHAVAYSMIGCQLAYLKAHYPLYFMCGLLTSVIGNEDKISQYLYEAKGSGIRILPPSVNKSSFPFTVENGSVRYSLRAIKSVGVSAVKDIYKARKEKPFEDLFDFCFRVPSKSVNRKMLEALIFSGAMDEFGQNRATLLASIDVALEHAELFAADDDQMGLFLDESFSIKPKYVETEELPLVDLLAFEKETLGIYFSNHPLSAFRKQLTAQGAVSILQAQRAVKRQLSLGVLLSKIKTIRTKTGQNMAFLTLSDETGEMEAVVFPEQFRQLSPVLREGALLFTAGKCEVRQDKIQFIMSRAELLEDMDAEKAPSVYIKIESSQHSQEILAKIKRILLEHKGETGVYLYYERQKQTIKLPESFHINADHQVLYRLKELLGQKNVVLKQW
Chain of DNA topoisomerase 4 subunit A [V210L]/B (Q45066 whole entry V210L): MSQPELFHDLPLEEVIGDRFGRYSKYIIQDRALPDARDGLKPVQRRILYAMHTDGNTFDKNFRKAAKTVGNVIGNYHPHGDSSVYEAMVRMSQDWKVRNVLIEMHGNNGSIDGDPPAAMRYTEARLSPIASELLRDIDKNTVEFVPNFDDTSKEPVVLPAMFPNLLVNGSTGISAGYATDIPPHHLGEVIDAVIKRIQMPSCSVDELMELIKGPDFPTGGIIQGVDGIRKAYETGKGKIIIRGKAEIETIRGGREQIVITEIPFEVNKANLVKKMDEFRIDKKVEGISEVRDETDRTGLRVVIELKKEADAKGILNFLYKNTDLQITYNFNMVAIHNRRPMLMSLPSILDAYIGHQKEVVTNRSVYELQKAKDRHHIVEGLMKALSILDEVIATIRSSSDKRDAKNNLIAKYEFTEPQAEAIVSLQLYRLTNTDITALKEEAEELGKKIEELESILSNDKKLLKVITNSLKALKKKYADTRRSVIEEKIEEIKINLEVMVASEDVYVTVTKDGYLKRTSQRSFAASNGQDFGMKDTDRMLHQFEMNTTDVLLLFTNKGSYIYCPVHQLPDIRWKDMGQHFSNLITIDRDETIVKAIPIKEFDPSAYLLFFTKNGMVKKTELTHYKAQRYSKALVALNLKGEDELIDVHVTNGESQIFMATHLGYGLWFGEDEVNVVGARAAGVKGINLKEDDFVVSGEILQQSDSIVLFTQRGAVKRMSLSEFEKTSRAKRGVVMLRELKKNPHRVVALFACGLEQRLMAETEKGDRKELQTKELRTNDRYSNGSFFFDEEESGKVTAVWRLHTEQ
Chain of DNA topoisomerase 4 subunit A [V210L]/B (Q59192 whole entry): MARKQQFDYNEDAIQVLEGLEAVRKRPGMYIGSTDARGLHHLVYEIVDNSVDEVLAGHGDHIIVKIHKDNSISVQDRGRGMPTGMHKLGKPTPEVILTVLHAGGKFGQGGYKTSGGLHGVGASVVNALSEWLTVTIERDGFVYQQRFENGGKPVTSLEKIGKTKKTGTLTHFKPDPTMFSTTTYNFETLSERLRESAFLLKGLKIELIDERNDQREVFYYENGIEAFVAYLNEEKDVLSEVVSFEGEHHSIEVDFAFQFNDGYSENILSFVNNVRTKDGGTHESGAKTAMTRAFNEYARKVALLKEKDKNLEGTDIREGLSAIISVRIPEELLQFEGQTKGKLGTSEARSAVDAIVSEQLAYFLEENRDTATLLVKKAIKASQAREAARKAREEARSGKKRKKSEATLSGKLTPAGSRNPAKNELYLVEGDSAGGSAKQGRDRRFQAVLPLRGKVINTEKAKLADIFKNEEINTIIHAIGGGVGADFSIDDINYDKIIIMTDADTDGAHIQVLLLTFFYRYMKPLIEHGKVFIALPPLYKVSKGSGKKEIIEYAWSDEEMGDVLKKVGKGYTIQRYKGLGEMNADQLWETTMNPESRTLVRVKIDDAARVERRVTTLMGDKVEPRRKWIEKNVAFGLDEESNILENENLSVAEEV

| SMILES | pKi [1] | pIC50 [2] | pIC50 (DNA gyrase subunit A/B) | pKi [3] | pKi [4] |
| --- | --- | --- | --- | --- | --- |
| CCc1cc(Nc2cc(=O)n(CCCCO)c(=O)[nH]2)ccc1C [HBEMAU] | < 3.00 | < 3.30 | < 3.30 | – | – |
| CCc1cc(Nc2cc(=O)n(CCCCN3CCN(c4c(F)cc5c(=O)c(C(=O)O)cn(C6CC6)c5c4F)CC3C)c(=O)[nH]2)ccc1C (stereo unspecified) | < 3.32 | – | – | < 3.32 | < 3.32 |
